Literature values in PMC4291083, “Ex Vivo Characterization of a Novel Iodine-123-Labelled Aminomethylchroman as a Potential Agonist Ligand for SPECT Imaging of Dopamine D2/3 Receptors” (International Journal of Molecular Imaging, 2014).

Tests used:
Design in all cases: method as in PMID 24325578
D2 low = settings: in vitro; cited from earlier work
D2 high = settings: in vitro; cited from earlier work
D2 receptor = settings: agonism D2 receptor, cited from earlier work
D1 receptor = settings: in vitro; cited from earlier work
dopamine D4 receptor = settings: in vitro; cited from earlier work

Substance: (R) N-[7-hydroxychroman-2-yl]-methyl 4-iodobenzyl amine [compound 1]
- Ki (D2 low): 51.8 nM
- Ki (D2 high): 3.79 nM
- Emax (D2 receptor; cAMP): 86 % of dopamine
- pEC50 cAMP (D2 receptor): 9.2 ± 0.4
- Ki (D1 receptor): 8670 nM
- binding affinity to dopamine D4 receptor (dopamine D4 receptor): binds with high-affinity
